Results reported in article PMC10620772, “Design, synthesis, and biological evaluation of new pyrimidine-5-carbonitrile derivatives as novel anti-cancer, dual EGFR^WT/COX-2 inhibitors with docking studies” (RSC Advances, 2023).
“And” between values parts separate entries of the source, which are not always exact repeats. Equal entries are not always repeated.

Assays:
[1] = test system: ovarian cancer subpanel; assay: NCI60 five-dose, subpanel VI; format: cell-based, human; details: for GI50: Homo sapiens, read-out: MG-MID (GI50); for GI50 / MG-MID (TGI): subpanel VI; for Selectivity index (GI50) / Selectivity index (TGI): full panel MG-MID / subpanel VI
Description: (§1) (2) The molar concentration of the compound responsible for total growth inhibition, also known as total growth inhibition (TGI).
(§2) Regarding subpanel selectivity toward certain cancer type, the method of determining a compound's selectivity index is to divide the full panel MG-MID (μM) value by each single subpanel. Values above six indicate high selectivity against the subpanel; moderate selectivity is denoted by values between three and six. Conversely, compounds are termed nonselective if their selectivity is less than three.[30,37]

[2] = target: T1, EGFR^WT (Homo sapiens, UniProt P00533); assay: In vitro EGFR^WT inhibitory assay (BPS Bioscience kinase kit); format: biochemical; details: means ± SD of three experiments
T1 construct: purchased BPS Bioscience 40 321
Description: (1) Prepare the mixture of N wells × (kinase assay buffer 6 μl, ATP1 μl, PTK substrate 1 μl and water 17 μl). to every well pipette the 25 μl. […] On the contrary, add 5 μl of inhibitor buffer to control and plank wells. (3) Pipette 20 μl of EGFR^WT to test and control wells, on the blank wells pipette 20 μl kinase assay buffer. Then incubate at R.T for 40 min. (4) end the incubation after 40 min by adding to every well 50 μl of Kinase-Glo Max reagent, and incubate 15 min. By measuring the ATP quantity after kinase reaction, the activity of kinase could be detected. (5) use microplate reader to measure the luminescence.[51]

[3] = test system: FHC (epithelial colon cell line); assay: in vitro; details: human
Description: (§3) Further perspectives of their mechanisms of action were carried.
(§4) The preliminary in vitro antitumor investigation of our novel potential anticancer candidates was carried out by NCI, MD, USA (www.dtp.nci.nih.gov). […] Moreover, the safety profile of 4e & 4f at normal cells were evaluated.

[4] = in vitro; details: human
Description: as §3, §4

[5] = test system: melanoma subpanel; assay: NCI60 five-dose, subpanel V; format: cell-based, human; details: for GI50: Homo sapiens, read-out: MG-MID (GI50); for GI50 / MG-MID (TGI): subpanel V; for Selectivity index (GI50) / Selectivity index (TGI): full panel MG-MID / subpanel V
Description: as §1, §2

[6] = test system: active caspase-3 in Colo 205 cells; assay: Caspase-3 ELISA; format: cell-based, human; details: for Caspase 3: Colo_205, treated at IC50
Description: Among the death proteases, the caspases family of cysteine-dependent aspartate-directed proteases is significant. There are multiple levels where caspase activation and activity are regulated.[43] Caspases are activated during apoptosis, which eventually results in cell death by deactivating a number of signals.[44] One of the crucial survival signals, EGFR, may be the target of caspase activation to ensure the completion of apoptosis.[45] Additionally, it has been reported that activating caspase-3 through COX-2 inhibition enhances apoptosis.[40] Therefore, the impact of the novel compounds on the level of caspase 3 was examined.
(1) Into the antibody coated wells add 100 μl of standard diluent buffer excepts wells wich detected to be the chromogen blank, then add 100 μl. […] (10) Decant liquid from wells then wash, (11) pipette 100 μl of chromogen substrate to all wells, The well fluid will start to become blue. (12) 30 minutes should be spent incubating at room temperature in the dark. (13) To each well, add 100 μl of stop solution. To mix, lightly tap the plate's edge. The well solution should transform from blue to yellow. (14) Read the absorbance of each well using a microtiter plate reader at 450 nm. (15) Draw the standard curve using a curve fitting program. (16) The standard curve can be used to determine the concentrations for unknown samples and controls.[55]

[7] = target: T2, COX-1 (Ovis aries, UniProt P05979); assay: COX-1 inhibitor screening kit (Biovision); format: biochemical; details: means ± SD of three experiments; read-out: COX1 IC50
T2 construct: purchased Biovision K548
Description: (§5) The inhibitory activity of novel 4e & 4f against COX-1/COX-2 was evaluated by using Biovision COX-1/COX-2 Inhibitor Screening Kit (Catalog #: K548) and (Catalog #: K547), respectively.

[8] = target: T3, COX-2 (Homo sapiens, UniProt P35354); assay: COX-2 inhibitor screening kit (Biovision); format: biochemical; details: for IC50: means ± SD of three experiments, read-out: COX2 IC50
T3 construct: purchased Biovision K547
T3 sequence (P35354 18-604): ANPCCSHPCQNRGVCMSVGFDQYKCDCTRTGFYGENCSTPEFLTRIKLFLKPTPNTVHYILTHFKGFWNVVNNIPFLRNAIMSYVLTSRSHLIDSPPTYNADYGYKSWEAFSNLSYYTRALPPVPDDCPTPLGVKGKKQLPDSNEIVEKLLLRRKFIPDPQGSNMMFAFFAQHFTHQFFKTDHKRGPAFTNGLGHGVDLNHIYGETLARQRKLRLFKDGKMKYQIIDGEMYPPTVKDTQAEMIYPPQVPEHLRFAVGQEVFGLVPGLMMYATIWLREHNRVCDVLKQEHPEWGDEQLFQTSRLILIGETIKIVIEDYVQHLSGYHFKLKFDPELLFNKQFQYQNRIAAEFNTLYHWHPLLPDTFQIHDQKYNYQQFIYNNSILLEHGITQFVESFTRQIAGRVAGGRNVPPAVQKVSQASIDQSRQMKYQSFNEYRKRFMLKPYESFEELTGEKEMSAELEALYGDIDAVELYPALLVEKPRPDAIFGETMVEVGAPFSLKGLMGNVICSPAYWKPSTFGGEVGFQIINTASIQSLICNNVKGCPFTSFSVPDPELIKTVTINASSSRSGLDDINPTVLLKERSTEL
Description: as §5

[9] = test system: non-small cell lung cancer subpanel; assay: NCI60 five-dose, subpanel II; format: cell-based, human; details: for GI50: Homo sapiens, read-out: MG-MID (GI50); for GI50 / MG-MID (TGI): subpanel II; for Selectivity index (GI50) / Selectivity index (TGI): full panel MG-MID / subpanel II
Description: as §1, §2

[10] = test system: Colo-205 cells; assay: Annexin V-FITC apoptosis assay; format: cell-based, human; details: treated at IC50
Description: The Annexin V-FITC/propidium iodide dual staining assay was used to assess the effect of compound (4e and 4f) on inducing apoptosis in Colo-205 cells. This assay allows for the identification of early stages of apoptosis before the loss of cell membrane integrity, allowing measurements of apoptotic death kinetics in relation to the cell cycle.
Cell Culture Unit, VACSERA, Cairo, Egypt, conducted an apoptosis investigation.
Centrifuge to collect cells, using binding buffer to resuspend cells. Pipette 5 μl of Annexine-V and 5 μl. Subsequently, incubate sample for 5 min. In R.T, dark condition. Detect Annexine V-FITC binding cells detected by FACSCaliber flow cytometer (Ex = 488 nm; Em = 530 nm) which indicate apoptotic cells. On the other side the PI stained cells detected by FL2 flow cytometer, which detect necrotic cells.[53,54]

T1 sequence (P00533 25-1210): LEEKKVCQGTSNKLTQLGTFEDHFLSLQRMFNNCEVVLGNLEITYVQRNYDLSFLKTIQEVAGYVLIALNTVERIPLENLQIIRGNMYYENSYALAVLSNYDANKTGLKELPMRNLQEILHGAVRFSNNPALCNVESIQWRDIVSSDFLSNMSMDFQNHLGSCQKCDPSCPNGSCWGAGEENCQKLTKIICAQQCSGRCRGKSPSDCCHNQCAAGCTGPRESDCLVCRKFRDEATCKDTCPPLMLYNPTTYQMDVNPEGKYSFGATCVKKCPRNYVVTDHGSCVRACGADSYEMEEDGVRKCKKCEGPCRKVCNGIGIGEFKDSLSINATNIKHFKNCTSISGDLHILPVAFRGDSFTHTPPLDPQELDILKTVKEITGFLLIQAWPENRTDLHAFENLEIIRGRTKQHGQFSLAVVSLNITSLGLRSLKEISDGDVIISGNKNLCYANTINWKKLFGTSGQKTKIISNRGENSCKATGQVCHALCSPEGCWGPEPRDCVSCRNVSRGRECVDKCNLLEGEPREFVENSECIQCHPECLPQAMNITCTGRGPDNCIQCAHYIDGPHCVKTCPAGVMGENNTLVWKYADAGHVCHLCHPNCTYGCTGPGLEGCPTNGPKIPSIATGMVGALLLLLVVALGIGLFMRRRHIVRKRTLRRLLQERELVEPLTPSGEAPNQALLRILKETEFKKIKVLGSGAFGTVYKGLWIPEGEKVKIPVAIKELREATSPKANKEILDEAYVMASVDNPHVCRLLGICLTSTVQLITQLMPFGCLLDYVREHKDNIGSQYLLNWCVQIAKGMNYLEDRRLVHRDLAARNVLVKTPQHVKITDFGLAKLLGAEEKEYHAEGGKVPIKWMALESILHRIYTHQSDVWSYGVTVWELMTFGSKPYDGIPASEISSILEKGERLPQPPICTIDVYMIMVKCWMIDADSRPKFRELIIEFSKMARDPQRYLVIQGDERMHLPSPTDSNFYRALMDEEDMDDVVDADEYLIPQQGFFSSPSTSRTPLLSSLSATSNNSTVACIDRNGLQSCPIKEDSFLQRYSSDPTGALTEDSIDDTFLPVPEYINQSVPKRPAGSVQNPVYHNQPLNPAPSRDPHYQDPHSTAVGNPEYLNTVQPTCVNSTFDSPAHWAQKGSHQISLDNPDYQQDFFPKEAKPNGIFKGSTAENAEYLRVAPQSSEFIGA
T2 sequence (P05979 25-600): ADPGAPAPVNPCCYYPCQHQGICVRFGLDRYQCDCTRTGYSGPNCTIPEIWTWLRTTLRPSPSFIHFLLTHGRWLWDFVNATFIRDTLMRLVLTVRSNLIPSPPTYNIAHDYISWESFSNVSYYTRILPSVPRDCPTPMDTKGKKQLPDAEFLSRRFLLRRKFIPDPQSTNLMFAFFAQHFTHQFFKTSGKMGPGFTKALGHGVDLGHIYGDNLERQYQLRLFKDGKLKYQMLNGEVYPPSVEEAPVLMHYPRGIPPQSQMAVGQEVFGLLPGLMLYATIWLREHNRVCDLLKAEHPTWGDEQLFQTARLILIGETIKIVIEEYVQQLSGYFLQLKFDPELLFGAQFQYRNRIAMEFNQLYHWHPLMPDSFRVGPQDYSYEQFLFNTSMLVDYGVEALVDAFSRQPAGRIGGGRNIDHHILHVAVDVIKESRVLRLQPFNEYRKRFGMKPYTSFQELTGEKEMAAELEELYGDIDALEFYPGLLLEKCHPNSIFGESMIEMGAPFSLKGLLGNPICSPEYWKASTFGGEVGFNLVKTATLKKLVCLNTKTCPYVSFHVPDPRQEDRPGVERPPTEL

SMILES	GI50 [1] [µM]	Selectivity index (GI50) [1]	Selectivity index (TGI) [1]	MG-MID (TGI) [1] [µM]	IC50 [2]	IC50 FHC [3] [µM]	IC50 [4] [µM]	selectivity ratio [4]	GI50 [5] [µM]	Selectivity index (GI50) [5]	Selectivity index (TGI) [5]	MG-MID (TGI) [5] [µM]	Caspase 3 [6] [pg·mL]	IC50 [7] [µM]	SI (COX-2 over COX-1) [8]	IC50 [8] [µM]	GI50 [9] [µM]	Selectivity index (GI50) [9]	Selectivity index (TGI) [9]	MG-MID (TGI) [9] [µM]	other results
N#Cc1c(-c2ccc(F)cc2)nc(SCc2ccc(F)cc2)nc1N1CCNCC1 [4f, 2-((4-Fluorobenzyl)thio)-4-(4-fluorophenyl)-6-(piperazin-1-yl) pyrimidine-5-carbonitrile]	15	0.89	0.86	30.41	0.23 µM and 0.235 µM	28.25	46.3	25.3	13.9	0.96	1.00	26.43	656.4 ± 13.1	31.6 ± 0.89	6.01	5.26	13.7	0.98	0.91	28.83	Caspase 3 fold vs control ([6]; Colo 205, treated at IC50): 8 fold and 7.88 fold; Apoptosis early [10]: 26.15%; Apoptosis late [10]: 12.71%; Apoptosis total [10]: 43.12%; Necrosis [10]: 4.26%
N#Cc1c(-c2ccc(F)cc2)nc(SCc2ccccc2)nc1N1CCNCC1 [4e, 2-(Benzylthio)-4-(4-fluorophenyl)-6-(piperazin-1-yl) pyrimidine-5-carbonitrile]	13.2	0.81	0.83	28.35	0.096 ± 0.004 µM	46.34	28.2	17	13	0.82	0.93	25.21	808.9 ± 11.9	11 ± 0.31	8.55	1.28	11.2	0.95	0.92	25.67	Apoptosis early [10]: 19.91%; Apoptosis late [10]: 25.22%; Apoptosis total [10]: 51.07%; Necrosis [10]: 5.94%
